These results are taken from patent US20230061835A1, “11-OXO CUCURBITANES AND THEIR USE AS FLAVOR MODIFIERS” (Firmenich SA, priority 2020, published 2023).

Experiment [1] in a line: Sensory testing by trained panel: saltiness taste. Type of experiment: in vivo, human. Particulars: panel of 20 trained panelists; test compound at 40 ppm; score on scale −5 (strong masking) to 5 (strong enhancing), 0 = reference water solution with 0.25% NaCl and 0.05% MSG. How it is done:
(§1) Each of Compound 101, Compound 102, Compound 103, Compound 104, and Compound 105 was tested for taste properties, particularly umami and saltiness. A panel of twenty (20) trained panelists evaluated the samples of each test compound at 40 ppm for umami taste properties and saltiness taste properties, and scored the solutions on a scale ranging from −5 to 5 (with −5 denoting a strong masking effect, and 5 denoting a strong enhancing effect, and 0 representing the intensity of a reference water solution containing 0.25% sodium chloride (NaCl) and 0.05% monosodium glutamate (MSG), respectively).

Experiment [2] in a line: Sensory testing by trained panel: umami taste. To be noted: panel of 20 trained panelists; test compound at 40 ppm; score on scale −5 (strong masking) to 5 (strong enhancing), 0 = reference water solution with 0.25% NaCl and 0.05% MSG. Type of experiment: in vivo, human. How it is done:
as §1

As for `C[C@H](CC[C@@H](O[C@@H]1O[C@H](CO[C@@H]2O[C@H](CO)[C@@H](O)[C@H](O)[C@H]2O)[C@@H](O)[C@H](O)[C@H]1O[C@@H]1O[C@H](CO)[C@@H](O)[C@H](O)[C@H]1O)C(C)(C)O)[C@H]1CC[C@@]2(C)[C@@H]3CC=C4[C@@H](CC[C@H](O[C@@H]5O[C@H](CO[C@@H]6O[C@H](CO)[C@@H](O)[C@H](O)[C@H]6O)[C@@H](O)[C@H](O)[C@H]5O)C4(C)C)[C@]3(C)C(=O)C[C@]12C` [Compound 101], the Saltiness in experiment [1] came out at 0.19. Further, the Umami in experiment [2] was determined as 0.88.

As for `C[C@H](CC[C@@H](O[C@@H]1O[C@H](CO[C@@H]2O[C@H](CO)[C@@H](O)[C@H](O)[C@H]2O)[C@@H](O)[C@H](O)[C@H]1O[C@@H]1O[C@H](CO)[C@@H](O)[C@H](O)[C@H]1O)C(C)(C)O)[C@H]1CC[C@@]2(C)[C@@H]3CC=C4[C@@H](CC[C@H](O[C@@H]5O[C@H](CO[C@@H]6O[C@H](CO)[C@@H](O)[C@H](O)[C@H]6O)[C@@H](O)[C@H](O)[C@H]5O[C@@H]5O[C@H](CO)[C@@H](O)[C@H](O)[C@H]5O)C4(C)C)[C@]3(C)C(=O)C[C@]12C` [Compound 102], the Saltiness in experiment [1] amounted to 0.87. Further, the Umami in experiment [2] was found to be 0.47.

With `C[C@H](CC[C@@H](O[C@@H]1O[C@H](CO)[C@@H](O)[C@H](O)[C@H]1O[C@@H]1O[C@H](CO)[C@@H](O)[C@H](O)[C@H]1O)C(C)(C)O)[C@H]1CC[C@@]2(C)[C@@H]3CC=C4[C@@H](CC[C@H](O[C@@H]5O[C@H](CO[C@@H]6O[C@H](CO)[C@@H](O)[C@H](O)[C@H]6O)[C@@H](O)[C@H](O)[C@H]5O)C4(C)C)[C@]3(C)C(=O)C[C@]12C` [Compound 103], in experiment [1], the Saltiness is given as −0.02. The Umami in experiment [2] was determined as 0.69.

In the case of `C[C@H](CC[C@@H](O[C@@H]1O[C@H](CO)[C@@H](O)[C@H](O)[C@H]1O[C@@H]1O[C@H](CO)[C@@H](O)[C@H](O)[C@H]1O)C(C)(C)O)[C@H]1CC[C@@]2(C)[C@@H]3CC=C4[C@@H](CC[C@H](O[C@@H]5O[C@H](CO)[C@@H](O)[C@H](O)[C@H]5O)C4(C)C)[C@]3(C)C(=O)C[C@]12C` [Compound 104], in experiment [1], the Saltiness is reported as −0.08. In addition, in experiment [2], the Umami worked out at 0.42.

For `C[C@H](CC[C@@H](O[C@@H]1O[C@H](CO)[C@@H](O)[C@H](O)[C@H]1O)C(C)(C)O)[C@H]1CC[C@@]2(C)[C@@H]3CC=C4[C@@H](CC[C@H](O[C@@H]5O[C@H](CO)[C@@H](O)[C@H](O)[C@H]5O)C4(C)C)[C@]3(C)C(=O)C[C@]12C` [Compound 105], the Saltiness in experiment [1] stood at 0.20. Further, in experiment [2], the Umami was 0.10.
